Results on eight molecules are retold here after US20250312468A1, “ANTI-PROTAC ANTIBODIES AND COMPLEXES” (Merck Patent GmbH, priority 2021, published 2025).

Bounds are passed on as bounds.

The target in one data set is MIC2. In words: SPR binding of PROTACs to immobilized antibody MIC2. As to conditions: MIC2, 1:1 kinetic binding model. The protocol: The binding affinities of hit antibodies MIC1 and MIC2 to a diverse set of VH032-based PROTACs (FIGS. 8A-8B) was determined by surface plasmon resonance (SPR) in a Biacore T200 instrument. The running buffer consist of PBS, 0.05% Tween-20, 2% DMSO and temperature and flow rate were set to 30° C. and 30 μL/min, respectively. The assay setup is depicted exemplarily in FIG. 7A. CM5 sensor chips were coated with antibody (=ligand; 2500 RU) using standard EDC/NHS chemistry. PROTACs (=analytes) were serially diluted (1 μM-1.9 nM) in running buffer, injected to the instrument in consecutive runs and were captured by the antibody resulting in an increase of the corresponding SPR response. After the association step (300 s), running buffer was injected for 600 s and the PROTAC dissociated from the antibody leading to signal decrease. After each run, residual bound PROTAC was removed from the immobilized antibody by injection of 10 mM glycine/HCl, pH 1.5 for 2×30 s regenerating the antibody for the next association and dissociation cycle. To compensate for matrix effects, the measured SPR response signal was subtracted by the analyte response to an inactivated (EDC/NHS, ethanol amine) reference surface omitting the ligand. Furthermore, a DMSO solvent correction was performed and analyte response was subtracted by the running buffer signal. The corrected response was fitted by a 1:1 kinetic binding model yielding the on- (kon) and off-rate (koff) of the PROTAC, as well as its dissociation constant (KD).

For another data set, the target named is CD33xMIC6. The experiment in a line: SPR affinity of VHH clone (antibody fusion) to PROTACs. The following applies: CD33xMIC6 immobilized, 25° C., read-out: KD [M] for antibody binding to PROTAC. The protocol: (§1) The kinetic and affinity parameters of protein-PROTAC interactions were evaluated by SPR. The anti-PROTAC VHH clones MIC5-MIC14 were immobilized as CD33 or CLL1 antibody fusion (the manufacturing of fusion proteins and the used linker is described in chapter 7.9) onto a CM5 (Series S) sensor chip via the standard amine coupling procedure, at 25° C. Prior to immobilization, the carboxymethylated surface of the chip was activated with 400 mM 1-ethyl-3-(3-dimethylaminopropyl)-carbodiimide and 100 mM N-hydroxysuccinimide for 7 min. Hit anti-PROTAC VHH as CD33 and CLL1 antibody fusions were diluted to 10 μg/ml in 10 mM Acetate at pH 4.5 and immobilized on the activated surface chip for 7 min, in order to reach 3,000 to 6,000 response units (RU). The remaining activated carboxymethylated groups were blocked with a 10 min injection of 1 M ethanolamine pH 8. HBS-N, which consists of 10 mM HEPES pH 7.4 and 150 mM NaCl, was used as the background buffer during immobilization. PROTACs were prediluted in DMSO, diluted 1:50 in running buffer (12 mM phosphate pH 7.4, 137 mM NaCl, 2.7 mM KCl, 0.05% Tween20, 2% DMSO) and injected at ten different concentrations using two-fold dilution series, from 1 μM to 0.002 μM. A DMSO solvent correction (1%-3%) was performed to account for variations in bulk signal and to achieve high-quality data. Interaction analysis cycles consisted of a 300 sec sample injection (30 μL/min; association phase) followed by 900 sec of buffer flow (dissociation phase).
(§2) All sensorgrams were processed by first subtracting the binding response recorded from the control surface (reference flow-channel), followed by subtracting of the buffer blank injection from the active flow-channel (target protein immobilized). All datasets were fit to a simple 1:1 Langmuir interaction model to determine the kinetic rate constants. Experiments were performed on a Biacore 8k+ (Cytiva, Uppsala, Sweden) at 25° C. and the interactions were evaluated using the provided Biacore Insight Evaluation software.

For another data set, the target named is CD33xMIC10. The description is as above. As to conditions: CD33xMIC10 immobilized, 25° C., read-out: KD [M] for antibody binding to PROTAC. The protocol:
as §1, §2

The next data set deals with CD33xMIC13. Described as above. The following applies: CD33xMIC13 immobilized, 25° C., read-out: KD [M] for antibody binding to PROTAC. On the procedure:
as §1, §2

Another data set addresses CD33xMIC14. The description is as above. The following applies: CD33xMIC14 immobilized, 25° C., read-out: KD [M] for antibody binding to PROTAC. The protocol: as §1, §2
Another data set deals with CD33xMIC5. The description is as above. As to conditions: CD33xMIC5 immobilized, 25° C., read-out: KD [M] for antibody binding to PROTAC. On the procedure:
as §1, §2

The next data set deals with CD33xMIC11. The description is as above. As to conditions: CD33xMIC11 immobilized, 25° C., read-out: KD [M] for antibody binding to PROTAC. On the procedure:
as §1, §2

The target of the next data set is CD33xMIC8. The description is as above. As to conditions: CD33xMIC8 immobilized, 25° C., read-out: KD [M] for antibody binding to PROTAC. The protocol:
as §1, §2

Another data set addresses CD33xMIC7. The data set is described as above. The following applies: CD33xMIC7 immobilized, 25° C., read-out: KD [M] for antibody binding to PROTAC. On the procedure: as §1, §2
The next data set concerns the target CD33xMIC9. The data set is described as above. As to conditions: CD33xMIC9 immobilized, 25° C., read-out: KD [M] for antibody binding to PROTAC. On the procedure: as §1, §2
In a further data set the target is CD33xMIC12. Described as above. The following applies: CD33xMIC12 immobilized, 25° C., read-out: KD [M] for antibody binding to PROTAC. The protocol:
as §1, §2

The nature of data set [1]: PK study of CD33-based VHH fusions and PAX in C57BL/6N mice. The data set is classed as in vivo, mouse. The following applies: analyte tAntibody, 30 mg/kg i.v., mean. On the procedure:
Additionally, the PAX CD33xMIC5+GNE987 and CD33xMIC7+GNE987 were generated with a theoretical loading of 100% and investigated in PK studies conducted in C57BL/6N inbred mice (N=2 males and females for each group) provided by Charles River Laboratories Italia, Calco, Italy. The 7-8-week-old mice received 30 mg/kg (corresponding to 0.38 mg/kg PROTAC) of CD33xMIC5+GNE987 and CD33xMIC7+GNE987, CD33 antibody alone, CD33xMIC5 or CD33xMIC7 as single dose, that was intravenously injected into the tail vein. Samples have been serially collected from all animals using a microsampling technique ([…] for each blood withdrawal). After administration, two blood samples were taken on the first day and 7 during the three weeks later. Each sample was collected in pre-chilled (0-4° C.) Minivette POCT EDTA tube, transferred in Microvette CB300 EDTA and centrifuged at 2500×g for 10 min at 4° C. The obtained plasma was transferred into a new vial and immediately stored at −80° C. until further analyses. The PK study, animal handling and experimentation, was conducted in accordance with the Italian D.Lvo. 2014/26 and Directive 2010/63/EU. The study was performed at the Instituto di Ricerche Biomediche Antoine Marxer, Colleretto Giacosa, Italy. The institute is fully authorized by the Italian Ministry of Health.
The total antibody concentration was determined by ligand binding assay (LBA) based on the Meso Scale Diagnostics technology (MSD, LLC., Rockville, MD). All incubation steps were performed at 22° C. with gentle agitation. All washing steps (200 μL/well) were performed with PBS-T, containing PBS pH 7.4 and 0.01% Tween 20, using the plate washer ELx405 (BioTek instruments Inc., Winooski, VT). First, 2.5 μg/mL biotin-SP-conjugated AffiniPure goat anti-human IgG, Fcγ fragment specific (Jackson ImmunoResearch Europe Ltd., JIR, Cambridgeshire, United Kingdom, #109-065-098) was coated on MSD GOLD 96-well Streptavidin QUICKPLEX Plates (MSD, #L55SA) for 2 h. Afterwards, plates were washed three times. Plasma samples, standards and quality controls were serially diluted in dilution buffer, consisting of PBS pH 7.4, 0.05% Tween 20 and 3.0% (w/v) BSA, and incubated on the plates for 1 h. The plates were washed again and incubated for 1 h with 0.6 μg/ml mouse anti-human IgG, F(ab′)2 fragment specific (JIR, #209-005-097), previously labeled with MSD GOLG SULFO-TAG (MSD, #R31AA-1) according to the manufacturing procedure. After a final washing step, 150 μL of 2×MSD Read Buffer T with surfactant (MSD, #R92TC) was added to each well and plates were read on a MESO Quickplex SQ120 plate reader (MSD). The Software Watson LIMS (Version 7.5, ThermoFisher Scientific Inc.) was used to fit the standard curve with a 5PL (Marquart) equations, weighting factor 1/Y2, and to calculate the total mAb concentration of the plasma samples. The lower limit of quantification (LLOQ) was 50 ng/ml. The concentration of MSC2734242 was determined by liquid chromatography tandem mass spectrometry (LC-MS/MS) using a SCIEX 5500 triple quadrupole with Turbo Ion Spray source (ITS) in positive modality (SCIEX, Redwood City, CA, USA). Chromatographic separation was achieved using a Waters ACQUITY UPLC BEH (C18, 2.1×50 mm, 1.7 μm) column, mounted in a Waters ACQUITY I-class UPLC system (Milford, MA, USA), configured with a 100 μL extension loop. […]

With `Cc1ncsc1-c1ccc(CNC(=O)[C@@H]2C[C@@H](O)CN2C(=O)[C@@H](NC(=O)C2(F)CC2)C(C)(C)C)c(OCCOc2ccc(CN3CCN(c4cc(-c5ccccc5O)nnc4N)CC3)cc2)c1` [ACBI1], the Kd at MIC2 was over 1000 nM; at CD33xMIC6 it was 6.5e-06 M; at CD33xMIC10, 8.5e-06 M; at CD33xMIC13, 9.3e-05 M; at CD33xMIC14, 9.3e-07 M; on CD33xMIC5, 2.5e-06 M. Besides, on CD33xMIC11, the dissociation constant Kd was 0.00011 M.
Consider `CC(=O)N[C@H](C(=O)N1C[C@H](O)C[C@H]1C(=O)NCc1ccc(-c2scnc2C)cc1)C(C)(C)SCCCCCCNC(=O)C[C@@H]1N=C(c2ccc(Cl)cc2)c2c(sc(C)c2C)-n2c(C)nnc21` [AT1], for which the Kd on MIC2 worked out at 6 nM; at CD33xMIC8, 5.2e-09 M; at CD33xMIC7, 2.1e-09 M; on CD33xMIC6, 7.3e-09 M; at CD33xMIC10, 2.4e-09 M; at CD33xMIC9 it was 1.4e-09 M. The Kd on CD33xMIC13 was 1.7e-09 M; on CD33xMIC12, 1.7e-09 M; at CD33xMIC14, 2.9e-09 M; on CD33xMIC5 it was 2.4e-09 M; on CD33xMIC11, 1.9e-10 M. For the same molecule, in the data set with MIC2, the koff result was “NM/1.90E−03 1/s”. For the same molecule, in the data set on MIC2, the kon result is listed as “NM/3.10E+05 1/Ms”.
Turning to `CC(=O)N1c2ccc(-c3ccc(C(=O)NCCOCCOCCOCC(=O)N[C@H](C(=O)N4C[C@H](O)C[C@H]4C(=O)NCc4ccc(-c5scnc5C)cc4)C(C)(C)C)cc3)cc2[C@H](Nc2ccc(Cl)cc2)C[C@@H]1C` [MZP54], at MIC2, the Kd stood at 0.42 nM, the koff entry is given as “NM/8.40E−05 1/s” and the kon entry was “NM/2.00E+05 1/Ms”.
`CC(=O)N1c2ccc(-c3ccc(C(=O)NCCOCCOCCOCCOCC(=O)N[C@H](C(=O)N4C[C@H](O)C[C@H]4C(=O)NCc4ccc(-c5scnc5C)cc4)C(C)(C)C)cc3)cc2[C@H](Nc2ccc(Cl)cc2)C[C@@H]1C` [MZP55]: on MIC2, the affinity, expressed as Kd, was 0.63 nM; the koff entry was “NM/7.40E−05 1/s”; the kon result is given as “NM/1.20E+05 1/Ms”.
With `Cc1nc(Nc2ncc(C(=O)Nc3c(C)cccc3Cl)s2)cc(N2CCN(C(=O)CCCCCCC(=O)N[C@H](C(=O)N3C[C@H](O)C[C@H]3C(=O)NCc3ccc(-c4scnc4C)cc3)C(C)(C)C)CC2)n1` [SIAIS178], at MIC2, the Kd stood at 0.41 nM, the koff entry was “NM/4.25E−05 1/s” and the kon entry was “NM/1.05E+05 1/Ms”. In addition, the Kd at CD33xMIC7 was found to be 8.3e-09 M.
Take `COc1cc(-c2cn(C)c(=O)c3cnccc23)cc(OC)c1CN1CCN(CCCCCOc2cc(-c3scnc3C)ccc2CNC(=O)[C@@H]2C[C@@H](O)CN2C(=O)[C@@H](NC(=O)C2(F)CC2)C(C)(C)C)CC1` [VZ185]: the Kd on MIC2 was over 1000 nM.
Regarding `CCCOc1cccc(Oc2cc3c(cc2NS(=O)(=O)c2cccc(C(=O)NCCOCCOCCOCC(=O)N[C@H](C(=O)N4C[C@H](O)C[C@H]4C(=O)NCc4ccc(-c5scnc5C)cc4)C(C)(C)C)c2)n(C)c(=O)n3C)c1` [dTRIM24], at MIC2, the Kd is 0.42 nM, the koff result is “NM/1.64E−04 1/s” and the kon entry is recorded as “NM/3.92E+05 1/Ms”.
In data set [1], “CD33 Ab: parental CD33-binding antibody (gemtuzumab CDRs, IgG4) without VHH” came in with an AUC0-inf of 219000 µg·h/mL, a Cl of 3.36 mL/day/kg, a Cmax of 810 µg/mL and a Vss of 0.0742 L/kg. The t½ in [1] is recorded as 237.0 h.
